ChEMBL document CHEMBL1148466, “Self-association of okadaic acid upon complexation with potassium ion” (J Med Chem, 2004)

Experiments:
[1] = target: Serine/threonine-protein phosphatase PP1-gamma catalytic subunit (Homo sapiens, UniProt P36873); assay: Inhibitory activity against serine/threonine protein phosphatase 1(PP1)
[2] = Inhibitory activity against serine/threonine protein phosphatase 2 (PP2A)

Sequence of Serine/threonine-protein phosphatase PP1-gamma catalytic subunit (P36873 whole entry): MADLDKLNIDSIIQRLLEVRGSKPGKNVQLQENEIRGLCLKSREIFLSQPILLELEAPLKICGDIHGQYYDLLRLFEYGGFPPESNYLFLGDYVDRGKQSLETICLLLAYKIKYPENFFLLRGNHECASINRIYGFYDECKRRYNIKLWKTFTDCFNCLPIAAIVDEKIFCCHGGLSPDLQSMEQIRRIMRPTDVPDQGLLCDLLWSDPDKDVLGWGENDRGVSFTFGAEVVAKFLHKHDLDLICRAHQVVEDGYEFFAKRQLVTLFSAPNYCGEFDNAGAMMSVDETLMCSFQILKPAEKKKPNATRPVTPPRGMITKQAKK

In the case of `C=C1[C@@H](O)[C@@H]2O[C@]3(CC[C@H](/C=C/[C@@H](C)[C@@H]4CC(C)=C[C@@]5(O[C@H](C[C@@](C)(O)C(=O)O)CC[C@H]5O)O4)O3)CC[C@H]2O[C@@H]1[C@@H](O)C[C@H](C)[C@H]1O[C@@]2(CCCCO2)CC[C@H]1C` [OKADAIC ACID], the IC50 [1] is reported as 20 nM and the IC50 [2] is reported as 0.2 nM.
